Assays:
[1] = In vitro cytotoxicity assay (MTT cell viability) in HepG2 cells; format: cell-based, human; settings: human
Method in brief: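 Read-out: MTT formazan absorbance at 492 nm, expressed as % of vehicle signal; CC50 by 4-parameter non-linear regression. Parental HepG2, 20,000 cells/well, treated 7 days with compound from 30 μM down to 1.0 nM.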

[2] = system: HBV replication in HepAD38 cells; experiment: Anti-HBV replication assay in HepAD38 cells (QPCR of extracellular HBV DNA); format: cell-based, HBV (genotype D, serotype ayw); settings: Hepatitis B virus, 168 h, 7 days incubation, extracellular HBV DNA by QPCR, read-out: Anti-HBV EC50
Method in brief: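 EC50 values reflect 50% reduction of extracellular HBV DNA, measured by QPCR after 7-day treatment of tetracycline-deprived HepAD38 cells with compound […].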

| SMILES | CC50 at 7 days [1] [nM] | EC50 [2] [nM] |
| --- | --- | --- |
| CCn1c(C)c(C(=O)Nc2ccc(F)c(C)c2)c(C)c1C(=O)C(=O)NC(C)(C)C [Example 96, 5-(2-(tert-butylamino)-2-oxoacetyl)-1-ethyl-N-(4-fluoro-3-methylphenyl)-2,4-dimethyl-1H-pyrrole-3-carboxamide] | > 30000 | < 50 |
| Cc1cc(NC(=O)c2cc(C(=O)C(=O)NC(C)(C)CO)n3c2CCC3)ccc1F [Example 537, N-(4-fluoro-3-methylphenyl)-5-(2-((1-hydroxy-2-methylpropan-2-yl)amino)-2-oxoacetyl)-2,3-dihydro-1H-pyrrolizine-7-carboxamide] | > 30000 | 50 to 499 |
| Cc1c(C(=O)Nc2ccnc(F)c2)c(C)n(C)c1C(=O)C(=O)NC1(C(F)(F)F)CCOCC1 [Example 271, N-(2-fluoropyridin-4-yl)-1,2,4-trimethyl-5-(2-oxo-2-((4-(trifluoromethyl)tetrahydro-2H-pyran-4-yl)amino)acetyl)-1H-pyrrole-3-carboxamide] | > 30000 | < 50 |
| CCOC(=O)[C@@H](CO)NC(=O)C(=O)c1c(C)c(C(=O)Nc2ccc(F)c(C)c2)c(C)n1C [Example 26, ethyl (2-(4-((4-fluoro-3-methylphenyl)carbamoyl)-1,3,5-trimethyl-1H-pyrrol-2-yl)-2-oxoacetyl)-D-serinate] | > 30000 | < 50 |
| Cc1cc(NC(=O)c2c(C)c(C(=O)C(=O)NC(C)(C)C(F)(F)F)n3c2CCCC3)cnc1F [Example 468, N-(6-fluoro-5-methylpyridin-3-yl)-2-methyl-3-(2-oxo-2-((1,1,1-trifluoro-2-methylpropan-2-yl)amino)acetyl)-5,6,7,8-tetrahydroindolizine-1-carboxamide] | > 30000 | 50 to 499 |
| Cc1cc(NC(=O)c2c(C)c(C(=O)C(=O)N[C@@H](C(=O)O)[C@@H](C)O)n(C)c2C)ccc1F [Example 52, (2-(4-((4-fluoro-3-methylphenyl)carbamoyl)-1,3,5-trimethyl-1H-pyrrol-2-yl)-2-oxoacetyl)-D-allothreonine] | > 30000 | > 1000 |
| Cc1cc(NC(=O)c2c(Cl)c(C(=O)C(=O)NC(C)(C)CO)n3c2CCCC3)ccc1F [Example 490, 2-chloro-N-(4-fluoro-3-methylphenyl)-3-(2-((1-hydroxy-2-methylpropan-2-yl)amino)-2-oxoacetyl)-5,6,7,8-tetrahydroindolizine-1-carboxamide] | > 30000 | < 50 |
| CO[C@H]1CC[C@@H](NC(=O)C(=O)c2c(C)c(C(=O)Nc3cnc(F)c(C)c3)c(C)n2C)CC1 [Example 344, N-(6-fluoro-5-methylpyridin-3-yl)-5-(2-(((1s,4s)-4-methoxycyclohexyl)amino)-2-oxoacetyl)-1,2,4-trimethyl-1H-pyrrole-3-carboxamide] | > 30000 | 50 to 499 |
| Cc1nc(C2(NC(=O)C(=O)c3c(C)c(C(=O)Nc4ccc(F)c(C)c4)c(C)n3C)CCCC2)no1 [Example 158, N-(4-fluoro-3-methylphenyl)-1,2,4-trimethyl-5-(2-((1-(5-methyl-1,2,4-oxadiazol-3-yl)cyclopentyl)amino)-2-oxoacetyl)-1H-pyrrole--3 carboxamide] | > 30000 | < 50 |
| Cc1noc([C@H](C)NC(=O)C(=O)c2c(C)c(C(=O)Nc3ccc(F)c(F)c3)c3n2CCCC3)n1 [Example 464, (S)-N-(3,4-difluorophenyl)-2-methyl-3-(2-((1-(3-methyl-1,2,4-oxadiazol-5-yl)ethyl)amino)-2-oxoacetyl)-5,6,7,8-tetrahydroindolizine-1-carboxamide] | > 30000 | 50 to 499 |
| Cc1cc(NC(=O)c2c(C)c(C(=O)C(=O)N[C@@H](C(=O)NCC(C)(C)O)C(C)(C)C)n(C)c2C)ccc1F [Example 87, (R)-N-(4-fluoro-3-methylphenyl)-5-(2-((1-((2-hydroxy-2-methylpropyl)amino)-3,3-dimethyl-1-oxobutan-2-yl)amino)-2-oxoacetyl)-1,2,4-trimethyl-1H-pyrrole-3-carboxamide] | > 30000 | < 50 |
| CC(=O)N1CC(C)(NC(=O)C(=O)c2c(C)c(C(=O)Nc3ccc(F)c(C)c3)c(C)n2C)C1 [Example 645, 5-(2-((1-acetyl-3-methylazetidin-3-yl)amno)-2-oxoacetyl)-N-(4-fluoro-3-methylphenyl)-1,2,4-trimethyl-1H-pyrrole-3-carboxamide] | > 30000 | < 50 |
| Cc1cc(NC(=O)c2c(C)c(C(=O)C(=O)NC3(C)CCN(C(=O)c4cnn5cccnc45)CC3)n(C)c2C)ccc1F [Example 719, N-(4-fluoro-3-methylphenyl)-1,2,4-trimethyl-5-(2-((4-methyl-1-(pyrazolo[1,5-a]pyrimidine-3-carbonyl)piperidin-4-yl)amino)-2-oxoacetyl)-1H-pyrrole-3-carboxamide] | > 30000 | < 50 |
| Cc1cc(NC(=O)c2c(C)c(C(=O)C(=O)NC34CC5CC(CC(O)(C5)C3)C4)n(C)c2C)ccc1F [Example 15, N-(4-fluoro-3-methylphenyl)-5-(2-(((1r,3s,5R,7S)-3-hydroxyadamantan-1-yl)amino)-2-oxoacetyl)-1,2,4-trimethyl-1H-pyrrole-3-carboxamide] | > 30000 | < 50 |
| Cc1cc(NC(=O)c2c(C)c(C(=O)C(=O)NC3CCS(=O)(=O)C(C)(C)C3)n(C)c2C)ccc1F (stereo not shown) [Example 623, 5-(2-((2,2-dimethyl-1,1-dioxidotetrahydro-2H-thiopyran-4-yl)amino)-2-oxoacetyl)-N-(4-fluoro-3-methylphenyl)-1,2,4-trimethyl-1H-pyrrole-3-carboxamide] | > 30000 | < 50 |
| Cc1cc(NC(=O)c2c(C)c(C(=O)C(=O)NC3(C)CCN(C(=O)c4cnn(C)c4)CC3)n(C)c2C)ccc1F [Example 693, N-(4-fluoro-3-methylphenyl)-1,2,4-trimethyl-5-(2-((4-methyl-1-(1-methyl-1H-pyrazole-4-carbonyl)piperidin-4-yl)amno)-2-oxoacetyl)-1H-pyrrole-3-carboxamide] | > 30000 | < 50 |
| COc1c(C(=O)Nc2ccc(F)c(F)c2)c(C)n(C)c1C(=O)C(=O)NC1(C(F)(F)F)CCC1 [Example 378, N-(3,4-difluorophenyl)-4-methoxy-1,2-dimethyl-5-(2-oxo-2-((1-(trifluoromethyl)cyclobutyl)amino)acetyl)-1H-pyrrole-3-carboxamide] | > 30000 | < 50 |
| Cc1noc([C@H](C)NC(=O)C(=O)c2c(Cl)c(C(=O)Nc3ccc(F)c(Cl)c3)c3n2CCC3)n1 [Example 553, (S)-6-chloro-N-(3-chloro-4-fluorophenyl)-5-(2-((1-(3-methyl-1,2,4-oxadiazol-5-yl)ethyl)amino)-2-oxoacetyl)-2,3-dihydro-1H-pyrrolizine-7-carboxamide] | 5000 to 30000 | < 50 |
| CC(=O)N[C@H]1C[C@@H](NC(=O)C(=O)c2c(C)c(C(=O)Nc3ccc(F)c(C)c3)c(C)n2C)C1 [Example 668, 5-(2-(((1s,3s)-3-acetamidocyclobutyl)amino)-2-oxoacetyl)-N-(4-fluoro-3-methylphenyl)-1,2,4-trimethyl-1H-pyrrole-3-carboxamide] | > 30000 | < 50 |
| Cc1c(C(=O)Nc2ccnc(Cl)c2)c(C)n(C)c1C(=O)C(=O)NC(C)(C)CN1CCOCC1 [Example 331, N-(2-chloropyridin-4-yl)-1,2,4-trimethyl-5-(2-((2-methyl-1-morpholinopropan-2-yl)amino)-2-oxoacetyl)-1H-pyrrole-3-carboxamide] | > 30000 | < 50 |
| Cc1cc(NC(=O)c2c(C)c(C(=O)C(=O)NC3CCC(F)(F)CC3)n(C)c2C)cnc1F [Example 343, 5-(2-((4,4-difluorocyclohexyl)amino)-2-oxoacetyl)-N-(6-fluoro-5-methylpyridin-3-yl)-1,2,4-trimethyl-1H-pyrrole-3-carboxamide] | > 30000 | 50 to 499 |
| Cc1cc(NC(=O)c2c(C)c(C(=O)C(=O)NC(C)(C)CF)n(C)c2C)ccc1F [Example 6, 5-(2-((1-fluoro-2-methylpropan-2-yl)amino)-2-oxoacetyl)-N-(4-fluoro-3-methylphenyl)-1,2,4-trimethyl-1H-pyrrole-3-carboxamide] | > 30000 | < 50 |
| Cc1cc(NC(=O)c2c(C)c(C(=O)C(=O)N[C@H](C)[C@@H](C)O)n(C)c2C)ccc1F [Example 199, N-(4-fluoro-3-methylphenyl)-5-(2-(((2R,3R)-3-hydroxybutan-2-yl)amino)-2-oxoacetyl)-1,2,4-trimethyl-1H-pyrrole-3-carboxamide] | > 30000 | < 50 |
| Cc1cc(NC(=O)c2c(C)c(C(=O)C(=O)NC3(c4nc(-c5ccncc5)no4)CCCCC3)n(C)c2C)ccc1F [Example 630, N-(4-fluoro-3-methylphenyl)-1,2,4-trimethyl-5-(2-oxo-2-((1-(3-(pyridin-4-yl)-1,2,4-oxadiazol-5-yl)cyclohexyl)amino)acetyl)-1H-pyrrole-3-carboxamide] | > 30000 | < 50 |
| Cc1csc(NC(=O)C(=O)c2c(C)c(C(=O)Nc3ccc(F)c(Cl)c3)c(C)n2C)n1 [Example 316, N-(3-chloro-4-fluorophenyl)-1,2,4-trimethyl-5-(2-((4-methylthiazol-2-yl)amino)-2-oxoacetyl)-1H-pyrrole-3-carboxamide] | > 30000 | < 50 |
| Cc1cc(NC(=O)c2c(C)c(C(=O)C(=O)NC3COCC(O)C3)n(C)c2C)ccc1F (stereo not shown) [Example 608, N-(4-fluoro-3-methylphenyl)-5-(2-((5-hydroxytetrahydro-2H-pyran-3-yl)amino)-2-oxoacetyl)-1,2,4-trimethyl-1H-pyrrole-3-carboxamide] | > 30000 | < 50 |

Reference: patent publication US20190375708A1 (VenatoRx Pharmaceuticals, Inc., priority 2018, published 2019)
